Assay results as given in US6436373B1, “Oligomeric diarylbutadienes” (BASF Aktiengesellschaft, priority 1998, dated 2002).

Assay: UV absorption (λmax and specific absorbance E1^1)
Assay type: physicochemical
Settings: for λmax.: UV absorption maximum, no unit or solvent printed; for E1^1: specific absorbance at λmax, solvent not given

Row | Compound | λmax. | E1^1
1 | CCOC(=O)/C(=C/C=C(c1ccccc1)c1ccccc1)C(=O)OCCOC(=O)/C(=C\C=C(c1ccccc1)c1ccccc1)C(=O)OCC [Example 2] | 336 | 800
2 | N#C/C(=C/C=C(c1ccccc1)c1ccccc1)C(=O)OCCOC(=O)/C(C#N)=C\C=C(c1ccccc1)c1ccccc1 [Example 3] | 354 | 850
